# Measured values: ChEMBL document CHEMBL1151354, “Isofraxidin, a cytotoxic coumarin from Micrandra elata (Euphorbiaceae)” (1980)
# Tests used:
# P388 = test: Cytotoxicity against mouse P388 cells; format: functional; details: read-out: ED50 (the source's name)
# KB = test: Cytotoxicity against human KB cells; format: functional; details: read-out: ED50 (the source's name)
structure (smiles),measurement,setting,value
COc1cc2ccc(=O)oc2c(OC)c1O,EC50,P388,1.7 µg/mL
same,EC50,KB,> 100 µg/mL
